The supplement of paper PMC10307832

Assays:
Assay in all cases: relative viability (nuclei count vs DMSO), 5 days (fraction); higher = more cells survive
[1] = compound: O=C(Nc1cccc(C(F)(F)F)c1)Nc1cc(S(=O)(=O)NC2CC2)ccc1-c1ccsc1 [AGI-6780] + CC(=O)c1c(C)c2cnc(Nc3ccc(N4CCNCC4)cn3)nc2n(C2CCCC2)c1=O [Palbociclib] (partner 0.5 µM)
Outline: (§1)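 Nuclei were stained with Hoechst during a one-step fixation (final 0.05% Triton X-100, 1% formaldehyde, 1 ug/ml Hoechst) carried out 5 days after dosing, then counted on 4× images. The cells, lung cancer lines in 1536-well plates, had been dosed by pin tool the day after seeding with one drug alone or a fixed anchor-drug dose plus five library-drug doses (not always all listed) in √10 steps. Relative viability is the nuclei count in treated wells divided by that in vehicle wells, and each value is the median of duplicate plates.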

[2] = compound: O=C(Nc1cccc(C(F)(F)F)c1)Nc1cc(S(=O)(=O)NC2CC2)ccc1-c1ccsc1 [AGI-6780] + CC(C)C[C@H](NC(=O)[C@H](Cc1ccccc1)NC(=O)c1cnccn1)B(O)O [Bortezomib] (partner 0.002 µM)
Outline: as §1

[3] = compound: O=C(Nc1cccc(C(F)(F)F)c1)Nc1cc(S(=O)(=O)NC2CC2)ccc1-c1ccsc1 [AGI-6780] + COc1cc2c(Oc3ccc(NC(=O)C4(C(=O)Nc5ccc(F)cc5)CC4)cc3F)ccnc2cc1OCCCN1CCOCC1 [Foretinib] (partner 0.25 µM)
Outline: as §1

[4] = compound: O=C(Nc1cccc(C(F)(F)F)c1)Nc1cc(S(=O)(=O)NC2CC2)ccc1-c1ccsc1 [AGI-6780] + CS(=O)(=O)N1CCN(Cc2cc3nc(-c4cccc5[nH]ncc45)nc(N4CCOCC4)c3s2)CC1 [Pictilisib] (partner 1 µM)
Outline: as §1

Row | Cell Line | relative viability ([1]; first compound 0.08 µM) | relative viability ([1]; first compound 0.253 µM) | relative viability ([1]; first compound 0.8 µM) | relative viability ([1]; first compound 2.53 µM) | relative viability ([1]; first compound 8 µM) | relative viability ([2]; first compound 0.08 µM) | relative viability ([2]; first compound 0.253 µM) | relative viability ([2]; first compound 0.8 µM) | relative viability ([2]; first compound 2.53 µM) | relative viability ([2]; first compound 8 µM) | relative viability ([3]; first compound 0.08 µM) | relative viability ([3]; first compound 0.253 µM) | relative viability ([3]; first compound 0.8 µM) | relative viability ([3]; first compound 2.53 µM) | relative viability ([3]; first compound 8 µM) | relative viability ([4]; first compound 0.08 µM) | relative viability ([4]; first compound 0.253 µM) | relative viability ([4]; first compound 0.8 µM) | relative viability ([4]; first compound 2.53 µM) | relative viability ([4]; first compound 8 µM)
1 | NCI-H460 | 0.145 | 0.211 | 0.144 | 0.136 | 0.15 | 1.18 | 1.09 | 1.21 | 1.08 | 1.05 | 0.98 | 1.04 | 1.04 | 0.998 | 0.991 | 0.325 | 0.338 | 0.382 | 0.242 | 0.374
2 | NCI-H520 | 0.208 | 0.25 | 0.232 | 0.235 | 0.207 | 0.577 | 0.661 | 0.63 | 0.697 | 0.779 | 0.684 | 0.942 | 1.07 | 0.655 | 0.77 | 0.278 | 0.315 | 0.332 | 0.257 | 0.29
3 | NCI-H647 | 0.416 | 0.36 | 0.48 | 0.332 | 0.422 | 1 | 1.01 | 0.735 | 1.05 | 1.41 | 1.1 | 1.2 | 1.31 | 1.11 | 1.4 | 0.428 | 0.452 | 0.421 | 0.347 | 0.342
4 | NCI-H650 | 0.34 | 0.3 | 0.258 | 0.333 | 0.334 | 0.835 | 0.926 | 0.882 | 0.751 | 0.961 | 1.06 | 1.05 | 1.04 | 0.961 | 1.07 | 0.872 | 0.769 | 0.833 | 0.775 | 0.826
5 | NCI-H661 | 0.418 | 0.41 | 0.411 | 0.371 | 0.432 | 0.78 | 0.933 | 0.758 | 0.694 | 0.771 | 1.03 | 0.986 | 1.03 | 0.873 | 1.05 | 0.378 | 0.482 | 0.45 | 0.317 | 0.381
6 | NCI-H727 | 0.669 | 0.671 | 0.605 | 0.56 | 0.645 | 1.08 | 0.987 | 0.786 | 0.648 | 0.819 | 1.07 | 0.982 | 0.98 | 0.626 | 1.02 | 0.516 | 0.545 | 0.38 | 0.227 | 0.276
7 | NCI-H838 | 0.252 | 0.267 | 0.221 | 0.218 | 0.224 | 0.965 | 0.692 | 0.952 | 1.05 | 1.18 | 1.13 | 1.02 | 0.987 | 0.895 | 1.02 | 0.473 | 0.479 | 0.469 | 0.447 | 0.48
8 | NCI-H1355 | 0.432 | 0.409 | 0.408 | 0.354 | 0.342 | 1.23 | 1.28 | 1.21 | 1.02 | 1.24 | 0.956 | 0.98 | 1.06 | 0.911 | 1.04 | 0.492 | 0.503 | 0.5 | 0.326 | 0.437
